This is an account of results in patent US12514859B2, “Pyrazole pyrimidine derivative and uses thereof” (Yissum Research Development Company of the Hebrew …, priority 2015, dated 2026).

SMILES strings stand for the structures.

Test [1] relates to p53, DNA damage response (γH2AX). As to the kind of experiment: p53 and DNA damage response activation in RKO cells (Western blot, primary screen and dose response). The test is classed as cell-based. Particulars: for DDR & p53 activity: 16 hours, Western blot, average value. As for the experimental part: (§1) Primary Screen in RKO cells for compounds having typical CKIα inhibitory activity (β-catenin and p53 stabilization and histone H2AX phosphorylation; see Elyada et al, Nature 2011 Feb. 17; 470(7334):409-13; Pribluda et al, Cancer Cell 2013 Aug. 12; 24(2):242-56). RKO colorectal cells were incubated with 10 μM of each of the compounds for 16 hours at 37° C. Cells were washed with PBS and cell pellets were incubated with ice cold protein lysis buffer containing protease inhibitor cocktail (1/200; Calbiochem) and phosphatase inhibitors (20 mM p-nitrophenyl phosphate (PNPP), 20 mM β-glycerophosphate and 300 nM okadaic acid). Western blot analysis was performed by means of standard techniques. Blots were incubated with antibodies detecting β-catenin (1/2,500; BD Transduction), p53 (DO-1&1801 hybridoma mix; dilution of 1:20 of supernatants from each), CKIα (C-19; 1/1,000; Santa Cruz Biotechnology) and phospho-histoneH2AX (S139; 1/1,000; Millipore). Secondary antibodies were HRP-linked goat anti-mouse, goat anti-rabbit and rabbit anti-goat antibodies (all 1/10,000; Jackson). Blots were developed using ECL (GE Healthcare).
(§2) Active compounds were further analyzed in a dose-response experiment (FIGS. 1A and 1B). Similar to the primary screen, RKO cells were incubated with descending concentrations of each of the active compounds for 16 hours at 37° C. Cell extract isolation and Western Blot analysis were similar to the primary screen.
(§3) Table 1 provides quantified information for compounds of the invention in activation of p53 and DNA damage response (DDR) and β-catenin stabilization as an indicator of Wnt pathway activation. p53 activation was determined according to the degree of protein stabilization in several Western blot assays (Western blot examples are shown in FIGS. 1A and 1B). […] In contrast, A35 started stabilizing p53 at […], with maximal stabilization at […] (FIG. 1A, upper right panel) and thus received an average value of +++ for p53 activation.
For orientation: In western blotting, separated proteins are transferred to a membrane and probed.

The next test deals with Wnt/β-catenin. As to the kind of experiment: β-catenin stabilization (Wnt pathway activation) in RKO cells (Western blot). Particulars: for β-Catenin activity: 16 hours, Western blot. The class given is cell-based. On the set-up: concentration at which β-catenin was stabilized: unit not given here. As to the method: as §1, §2, §3

For the compound `Cn1ncc(-c2ccnc(NC3CCC4(CC3)NC(=O)NC4=O)n2)c1CC1CC1` (stereo not drawn) [Compound A19-4, 8-((4-(5-(cyclopropylmethyl)-1-methyl-1H-pyrazol-4-yl)pyrimidin-2-yl)amino)-1,3-diazaspiro[4.5]decane-2,4-dione], the “p53 stabilization and γH2AX induction (in words)” value in test [1] (FIG. 1A) is listed as “neither stabilized p53, nor induced γH2AX”. The β-Catenin activity entry in the test on Wnt/β-catenin is given as “+++ (+++ indicates maximal β-catenin or p53 stabilization at >2 μM)”. The “concentration at which β-catenin was stabilized” value in the test on Wnt/β-catenin (FIG. 1A) was found to be 2.

With `Cn1ncc(-c2ccnc(NC3CCC4(CC3)COC(=O)N4)n2)c1CC1CC1` (stereo not drawn) [Compound A26, 8-((4-(5-(cyclopropylmethyl)-1-methyl-1H-pyrazol-4-yl)pyrimidin-2-yl)amino)-3-oxa-1-azaspiro[4.5]decan-2-one], the “DDR & p53 activity” value in test [1] is listed as “+ (+ indicates low, yet significant activation at a compound concentration of 6 μM)”. In addition, the β-Catenin activity result with Wnt/β-catenin is reported as “+ (+ indicates low, yet significant activation at a compound concentration of 6 μM)”.

Take `N[C@H]1CC[C@H](Nc2nccc(-c3cnn(C4CCCOC4)c3CC3CC3)n2)CC1` (stereo partly drawn) [Compound A38, (1R, 4R)—N^1-(4-(5-(cyclopropylmethyl)-1-(tetrahydro-2H-pyran-3-yl)-1H-pyrazol-4-yl)pyrimidin-2-yl)cyclohexane-1,4-diamine]: in test [1], the “DDR & p53 activity” value is “+ (+ indicates low, yet significant activation at a compound concentration of 6 μM)”. For the same compound, the β-Catenin activity entry with Wnt/β-catenin is “+ (+ indicates low, yet significant activation at a compound concentration of 6 μM)”.

With `Cn1ncc(-c2ccnc(N[C@H]3CC[C@H](N4CCOCC4)CC3)n2)c1CC1CC1` [Compound A48, 4-(5-(cyclopropylmethyl)-1-methyl-1H-pyrazol-4-yl)-N-((1r, 4r)-4-morpholinocyclohexyl)pyrimidin-2-amine], in test [1], the “DDR & p53 activity” value is listed as “+ (+ indicates low, yet significant activation at a compound concentration of 6 μM)”. Further, the β-Catenin activity entry in the test with Wnt/β-catenin is “+ (+ indicates low, yet significant activation at a compound concentration of 6 μM)”.

As to `CC(C)n1ncc(-c2ccnc(N[C@H]3CC[C@H](N)CC3)n2)c1CC1CCC1` [Compound A53, (1R,4R)—N^1-(4-(5-(cyclobutylmethyl)-1-isopropyl-1H-pyrazol-4-yl)pyrimidin-2-yl)cyclohexane-1,4-diamine], the “DDR & p53 activity” value in test [1] is “+ (+ indicates low, yet significant activation at a compound concentration of 6 μM)”. For the same compound, the β-Catenin activity result in the test on Wnt/β-catenin is reported as “+ (+ indicates low, yet significant activation at a compound concentration of 6 μM)”.

As for `Cn1ncc(-c2nc(N[C@H]3CC[C@H](Nc4ccccc4)CC3)ncc2Cl)c1CC1CC1` [Compound A68, (1R,4R)—N^1-(5-chloro-4-(5-(cyclopropylmethyl)-1-methyl-1H-pyrazol-4-yl)pyrimidin-2-yl)-N^4-phenylcyclohexane-1,4-diamine], the “DDR & p53 activity” value in test [1] is reported as “+ (+ indicates low, yet significant activation at a compound concentration of 6 μM)”. For the same compound, in the test with Wnt/β-catenin, the β-Catenin activity result is listed as “+ (+ indicates low, yet significant activation at a compound concentration of 6 μM)”.

For `Cn1ncc(-c2nc(NC3CCC(NCc4cn[nH]c4)CC3)ncc2Cl)c1CC1CC1` [Compound A75, (1R,4R)—N^1-((1H-pyrazol-4-yl)methyl)-N^4-(5-chloro-4-(5-(cyclopropylmethyl)-1-methyl-1H-pyrazol-4-yl)pyrimidin-2-yl)cyclohexane-1,4-diamine], in test [1], the “DDR & p53 activity” value is “+++++ (+++++ indicates maximal activation of p53 and DDR at >0.1 μM)”. In the test on Wnt/β-catenin, the β-Catenin activity entry is “+++ (+++ indicates maximal β-catenin or p53 stabilization at >2 μM)”.

Consider `Cn1ncc(-c2nc(NC3CCC(NCc4cn[nH]c4)CC3)ncc2F)c1CC1CC1` [Compound A85, (1R,4R)—N^1-((1H-pyrazol-4-yl)methyl)-N^4-(4-(5-(cyclopropylmethyl)-1-methyl-1H-pyrazol-4-yl)-5-fluoropyrimidin-2-yl)cyclohexane-1,4-diamine], for which the “DDR & p53 activity” value in test [1] is “+++ (+++ indicates maximal β-catenin or p53 stabilization at >2 μM)”. Besides, the β-Catenin activity result with Wnt/β-catenin is “+++ (+++ indicates maximal β-catenin or p53 stabilization at >2 μM)”.

On to `Cn1ncc(-c2nc(NC3CCC(N)CC3)ncc2F)c1CC1CC1` [Compound A86, (1R,4R)—N^1-(4-(5-(cyclopropylmethyl)-1-methyl-1H-pyrazol-4-yl)-5-fluoropyrimidin-2-yl)cyclohexane-1,4-diamine], for which, in test [1], the “DDR & p53 activity” value is “+++++ (+++++ indicates maximal activation of p53 and DDR at >0.1 μM)”. Also, in the test with Wnt/β-catenin, the β-Catenin activity entry was “+++ (+++ indicates maximal β-catenin or p53 stabilization at >2 μM)”.

Take `Cn1ncc(-c2nc(N[C@H]3CC[C@H](NC(=O)c4cn[nH]c4)CC3)ncc2Cl)c1CC1CC1` [Compound A87, N-((1R,4R)-4-((5-chloro-4-(5-(cyclopropylmethyl)-1-methyl-1H-pyrazol-4-yl)pyrimidin-2-yl)amino)cyclohexyl)-1H-pyrazole-4-carboxamide]: the “DDR & p53 activity” value in test [1] is on record as “+ (+ indicates low, yet significant activation at a compound concentration of 6 μM)”. For the same compound, the β-Catenin activity entry in the test with Wnt/β-catenin was “+++ (+++ indicates maximal β-catenin or p53 stabilization at >2 μM)”.
